Results taken from patent US9562031B1, “Phenethyldihydrobenzodioxolones and methods of use” (Sequoia Sciences, Inc., priority 2015, dated 2017).
pIC50: −log10 of the molar value. Structures can show the parent of a compound that is named as a salt.

System: NCI-H460 or M14 cells
Experiment: in vitro antiproliferation assay (cell line not stated for the salt)
Format: cell-based
Conditions: Homo sapiens, HCl salt
Experimental: For the antiproliferation assay, NCI-H460 (large cell lung carcinoma) or M14 (amelanotic melanoma) cells were grown in RPMI-1640 with 10% FBS supplemented with L-glutamine and HEPES. Cells were seeded into 96-well plates at 5×10^2 to 5×10^4 cells/well and allowed to adhere overnight; the medium was then removed. A stock solution of test compound in DMSO was diluted in medium to generate a series of working solutions. Aliquots (100 μl) of the working solutions were then added to the appropriate test wells to expose cells to the final concentrations of compound in a total volume of 100 μl. Seven different concentrations were tested, with 2-5 wells per concentration. Camptothecin was used as a positive control; wells containing vehicle without compound were used as negative controls. Plates were kept for 72 h in a 37° C., 5% CO2 incubator. After incubation, viable cells were detected with the CELLTITER 96 AQueous Non-Radioactive Cell Proliferation Assay (Promega), and IC50 values were determined using GraphPad Prism 5 software.
As stated herein, the invention also includes compounds and their salts. The HCl salt of compound 66 was prepared, and the salt retained activity in the in vitro antiproliferation assay (IC50 5-7 μM).

pIC50: 5.15 to 5.30
SMILES: COc1cc(F)c(C[C@H](C)[C@]23C[C@H](Cc4ccncc4)C(=O)C=C2OCO3)cc1O [HCl salt of compound 66, (6S,7aR)-7a-((S)-1-(2-fluoro-5-hydroxy-4-methoxyphenyl)propan-2-yl)-6-(pyridin-4-ylmethyl)-7,7a-dihydrobenzo[d][1,3]dioxol-5(6H)-one hydrochloride]
